{"source": "paper PMC6273578", "about": "“Design, Synthesis and Biological Evaluation of Benzohydrazide Derivatives Containing Dihydropyrazoles as Potential EGFR Kinase Inhibitors” (Molecules, 2016)", "key": {"A549 cells": {"system": "A549 cells", "assay": "MTT antiproliferative assay, A549", "assay_type": "cell-based, human", "conditions": "Homo sapiens, read-out: In vitro antiproliferative activity IC50, A549", "description": "(§1) IC50 values of the test compounds against A549, MCF-7, Hela and HepG2 cells were obtained from State Key Laboratory of Pharmaceutical Biotechnology, Nanjing University, and were determined by a standard (MTT)-based colorimetric assay (Beyotime Inst. Biotech., Nanjing, China). Tumor cell lines were grown to mid-log phase and then diluted to […] making sure they were seeded in 96-well plates (Philas, Nanjing, China) at a density of 5 × 10^3–1 × 10^4 cells per well. The outer wells containing 1 × PBS solution of the plate are not used for the assay to avoid the possibility of edge effects. The plate was incubated at 37 °C in a 5% CO2 incubator in DMEM containing 10% fetal bovine serum (FBS, Gibco, Waltham, MA, USA) for 24 h. Then, we added a 100-μL series concentration of drug-containing medium into the wells to maintain the final concentration of drug as 100, 10, 1 and 0.1 μmol/L. After 12 h, cell survival was determined by the addition of a MTT (3-(4,5-dimethylthiazol-2-yl)-2,5-diphenyl trtrazolium bromide) solution (10 μL of 5 mg/mL MTT in 1 × PBS). We waited for 4 h proliferation, discarded the medium and quickly added 150 μL DMSO per well, shaking the plates well for 10 min to ensure complete dissolution. Optical absorbance was measured at 570 nm on a microplate reader (Bio-Rad, Hercules, CA, USA). Survival ratios are expressed in percentages with respect to untreated cells. The experiments were replicated at least three times to verify the methodology reproducibility when using the above-mentioned conditions."}, "HepG2 cells": {"system": "HepG2 cells", "assay": "MTT antiproliferative assay, HepG2", "assay_type": "cell-based, human", "conditions": "Homo sapiens, read-out: In vitro antiproliferative activity IC50, HepG2", "description": "as §1"}, "MCF-7 cells": {"system": "MCF-7 cells", "assay": "MTT antiproliferative assay, MCF-7", "assay_type": "cell-based, human", "conditions": "Homo sapiens, MCF7, read-out: In vitro antiproliferative activity IC50, MCF-7", "description": "as §1"}, "HeLa cells [1]": {"system": "HeLa cells", "assay": "MTT antiproliferative assay, HeLa", "assay_type": "cell-based, human", "conditions": "Homo sapiens, read-out: In vitro antiproliferative activity IC50, HeLa", "description": "as §1"}, "HeLa cells [2]": {"system": "HeLa cells", "assay": "Cell apoptosis assay by flow cytometry (Annexin V-FITC/PI)", "assay_type": "cell-based, human", "conditions": "24 h", "description": "To verify whether the inhibition of cell growth of HeLa cell lines was related to cell apoptosis, we decided to use flow cytometry with an Annexin V-FITC/PI Apoptosis Detection Kit to […] the HeLa cell apoptosis with compound H20.\nFor Annexin V/PI assays, HeLa cells were stained with Annexin VFITC and PI and then monitored for apoptosis by flow cytometry. Briefly, 5 × 10^3 cells were seeded in 6-well plates for 24 h and then were treated with H20 (2.0, 4.0, 6.0, 8.0 μM) for 24 h. Then, cells were collected and washed twice with PBS and stained with 5 μL Annexin V-FITC and 5 μL PI (5 μg/mL) in 1× binding buffer (10 mM HEPES, pH 7.4, 140 mM […], 2.5 mM CaCl2) for 15 min at room temperature in the dark. Apoptotic cells were quantified using a BD Accuri C6 Flow Cytometer (Becton, Dickinson and Company, Clifton, NJ, USA). Statistical analysis was done using Flowjo 7.6.1 software. Both early apoptotic (AnnexinV-positive, PI-negative) and late apoptotic (double positive of Annexin V and PI) cells were detected."}, "[3]": {"assay": "Cytotoxicity test (MTT) on 293T cells", "conditions": "human, 293T human kidney epithelial cells", "description": "The cytotoxic activity in vitro was measured by the colorimetric MTT assay. […] For the cytotoxicity assay, 20 μL of MTT (5 mg/mL) was added per well 4 h before the end of the incubation. After removing the supernatant, 200 μL DMSO was added to dissolve the formazan crystals. The absorbance at λ 570 nm was read on an LX300 Epson Diagnostic microplate reader, untreated cells were used as negative controls."}, "[4]": {"target": "epidermal growth factor receptor (EGFR) (Homo sapiens, UniProt P00533)", "sequence (P00533 25-1210)": "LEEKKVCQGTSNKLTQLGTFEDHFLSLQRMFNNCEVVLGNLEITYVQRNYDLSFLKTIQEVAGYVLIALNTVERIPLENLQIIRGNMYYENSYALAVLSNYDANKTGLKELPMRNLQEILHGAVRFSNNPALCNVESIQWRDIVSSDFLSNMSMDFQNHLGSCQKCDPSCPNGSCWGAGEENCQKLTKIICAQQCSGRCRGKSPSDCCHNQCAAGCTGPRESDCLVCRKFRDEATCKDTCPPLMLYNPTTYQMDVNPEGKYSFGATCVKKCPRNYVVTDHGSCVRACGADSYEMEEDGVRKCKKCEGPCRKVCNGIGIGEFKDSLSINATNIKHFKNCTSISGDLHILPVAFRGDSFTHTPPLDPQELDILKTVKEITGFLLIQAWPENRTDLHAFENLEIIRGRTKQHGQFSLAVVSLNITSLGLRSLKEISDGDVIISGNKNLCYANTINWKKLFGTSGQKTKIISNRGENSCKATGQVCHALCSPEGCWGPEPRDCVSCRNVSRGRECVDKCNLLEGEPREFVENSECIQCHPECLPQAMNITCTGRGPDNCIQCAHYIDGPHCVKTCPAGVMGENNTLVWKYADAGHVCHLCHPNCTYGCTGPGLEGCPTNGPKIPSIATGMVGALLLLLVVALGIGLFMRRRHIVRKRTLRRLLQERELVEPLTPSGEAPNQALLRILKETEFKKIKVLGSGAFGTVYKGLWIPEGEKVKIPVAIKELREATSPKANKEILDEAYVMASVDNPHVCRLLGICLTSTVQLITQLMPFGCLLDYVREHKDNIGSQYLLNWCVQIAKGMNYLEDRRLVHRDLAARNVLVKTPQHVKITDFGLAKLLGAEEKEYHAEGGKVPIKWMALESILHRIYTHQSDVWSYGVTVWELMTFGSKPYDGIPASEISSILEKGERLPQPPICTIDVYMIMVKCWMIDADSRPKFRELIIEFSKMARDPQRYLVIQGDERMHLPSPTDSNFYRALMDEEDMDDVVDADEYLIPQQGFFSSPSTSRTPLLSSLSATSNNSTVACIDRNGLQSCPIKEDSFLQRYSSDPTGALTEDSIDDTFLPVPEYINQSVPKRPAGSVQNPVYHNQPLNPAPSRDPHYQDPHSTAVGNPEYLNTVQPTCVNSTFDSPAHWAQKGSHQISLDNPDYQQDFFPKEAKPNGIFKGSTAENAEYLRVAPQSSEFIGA", "assay": "EGFR kinase inhibition, solid-phase ELISA assay", "protocol": "All these newly synthesized compounds were evaluated for their inhibitory activities against EGFR kinases using a solid-phase ELISA assay.\nEGFR tyrosine kinase activity was determined by an enzyme linked-immunosorbent assay (ELISA) in 96-well plates precoated in a 10 mL reaction volume including 4 mL diluted test compounds, 4 mL substrate and 2 mL ATP. […] The plates were then aspirated and washed twice with 200 mL 0.9% (w/v) NaCl, and incorporation of Pi was determined with an LX300 Epson Diagnostic microplate reader. […] The experiments were replicated at least three times to verify the methodology reproducibility when using the above-mentioned conditions."}}, "data": [{"smiles": "COc1ccc(/C=N/NC(=O)c2ccc(N3N=C(c4ccc(C)cc4)CC3c3ccc4ccccc4c3)cc2)cc1", "note": "(centres unmarked) [Compound H20, (E)-N′-(4-Methoxybenzylidene)-4-(5-(naphthalen-2-yl)-3-(p-tolyl)-4,5-dihydro-1H-pyrazol-1-yl)benzo-hydrazide]", "values": [{"measurement": "IC50", "setting": "A549 cells", "result": 0.46, "unit": "µM"}, {"measurement": "melting point", "result": "241 to 243", "unit": "°C"}, {"measurement": "IC50", "setting": "HepG2 cells", "result": 0.21, "unit": "µM"}, {"measurement": "IC50", "setting": "MCF-7 cells", "result": 0.29, "unit": "µM"}, {"measurement": "IC50", "setting": "HeLa cells [1]", "result": 0.15, "unit": "µM"}, {"measurement": "percentage of cell apoptosis", "setting": "HeLa cells [2]; 2.0 μM", "result": 28.7, "unit": "%"}, {"measurement": "percentage of cell apoptosis", "setting": "HeLa cells [2]; 4.0 μM", "result": 34.9, "unit": "%"}, {"measurement": "percentage of cell apoptosis", "setting": "HeLa cells [2]; 6.0 μM", "result": 47.2, "unit": "%"}, {"measurement": "percentage of cell apoptosis", "setting": "HeLa cells [2]; 8.0 μM", "result": 58.12, "unit": "%"}, {"measurement": "CC50 at 24 h", "setting": "[3]", "result": 89.9, "unit": "µM"}, {"measurement": "IC50", "setting": "[4]", "result": 0.08, "unit": "µM"}]}]}
